US20040138193A1, “Oestrogen fatty acid monoester as a hypolipidaemic and antidiabetic agent” (priority 2001, published 2004)

What was measured:
Assay type in all cases: in vivo, rat
[1] = system: normal-weight adult female Zucker rats (genotype Fa/?); experiment: Plasma lipoproteinogram (polyacrylamide gel electrophoresis), normal-weight rats; conditions: 10 micromols per kg daily, 10 days
Description: FIG. 1 is a lipoproteinogram of plasma from normal-weight rats (Zucker Fa/?), showing the effect of oleoyl-estrone on lipoprotein distribution. I=intact; C=control; T=treated with oleoyl-estrone; HDL=high-density lipoproteins; LDL=low-density lipoproteins; VLDL=very low-density lipoproteins.
Since treatment with oleoyl-estrone deeply modifies the plasma lipids of rats, an experiment was carried out to determine whether the oral administration of oleoyl-estrone modifies the plasma lipidogram of lean and genetically obese rats. Two groups of animals were used: (1) normal-weight adult female Zucker rats (genotype Fa/?), and (2) genetically obese adult female Zucker rats (genotype fa/fa). In the first group one rat was killed to obtain a sample of blood (intact control); in the second group (obese rats), two intact controls were killed and their blood recovered. […] All blood samples were centrifuged to obtain plasma; plasma proteins were analysed by means of polyacrylamide gel electroforesis (kit Lipofilm, Sebia, Issy les Molineaux, France), lipids were stained with Sudan black.

obese rats = experiment: Lipoprotein separation by ultracentrifugation and lipid composition analysis, obese rats; conditions: 10 μmol/kg daily, vs controls
Source text: FIG. 4 is analogous to FIG. 3, but for obese rats.
Lipoproteins in fresh plasma were fractionated by differential ultracentrifugation in known density media obtained through the addition of KBr. […] These fractions were used for the analysis of protein and lipidic components, and for the estimation of particle size.
Whole plasma, lipoprotein fractions and LPdp were used for the analysis of protein and lipid content. Total protein was estimated with the Bradford method (cf. M. M. Bradford, Anal. Biochem. 1976, vol. 72, pp. 248-254). Total cholesterol was measured in saline with a high-performance cholesterol kit. Triacylglycerol concentrations were measured with a commercial kit and the results were corrected for free glycerol. Phospholipid was quantified by a choline-based method. […] Recoveries for all plasma components (i.e. deviations from the values in whole plasma and those derived from the sum of its content in lipoprotein fractions) were lowest for triacylglycerols (88±3%) and highest for protein (92±3%). Sudan black-prestained serum samples were sepparated by polyacrylamide gel electrophoresis. Separation of lipoprotein classes through centrifugation allowed a detailed analysis of lipoprotein composition as shown in FIGS. 3 and 4.

lipoprotein lipase = experiment: Lipoprotein lipase activity in plasma and tissues of treated lean and obese rats; conditions: for Lipoprotein-lipase activity, WAT mesenteric, whole tissue of the rat / Lipoprotein-lipase activity, WAT periovaric, whole tissue of the rat / Lipoprotein-lipase activity, Muscle, whole tissue of the rat: 10 μmol/kg · d; for Lipoprotein-lipase activity, WAT mesenteric, whole tissue of the rat: calculated assuming all WAT had the specific activity of mesenteric WAT; for Lipoprotein-lipase activity, WAT periovaric, whole tissue of the rat: calculated assuming all WAT had the specific activity of periovaric WAT; for Lipoprotein-lipase activity, Liver, per gram of tissue protein / Lipoprotein-lipase activity, Liver, per unit of tissue weight / Lipoprotein-lipase activity, Liver, whole organ of the rat / Lipoprotein-lipase activity, Muscle, per gram of tissue protein / Lipoprotein-lipase activity, Muscle, per unit of tissue weight / Lipoprotein-lipase activity, Plasma / Lipoprotein-lipase activity, Plasma, per gram of protein / Lipoprotein-lipase activity, WAT mesenteric, per gram of tissue protein / Lipoprotein-lipase activity, WAT mesenteric, per unit of tissue weight / Lipoprotein-lipase activity, WAT periovaric, per gram of tissue protein / Lipoprotein-lipase activity, WAT periovaric, per unit of tissue weight / Lipoprotein-lipase activity, Plasma, whole compartment of the rat: daily gavage 10 μmol/kg · d; for Lipoprotein-lipase activity, Plasma, whole compartment of the rat: plasma mass taken as 2.75% of body weight; for overall lipoprotein lipase activity in the rat (muscle + liver + plasma + WAT): rough estimate
Description: Liver, muscle and WAT (white adipose tissue) samples were homogenized in 10 mM hepes buffer pH 7.5, containing 250 mM sucrose, 1 MM-EDTA and 1 mM dithiothreitol in order to measure lipoprotein lipase activity in tissues. Homogenates were clarified by centrifugation (10 min at 10,000×g) at 4° C. The assay mixture (pH 7.5) contained 0.6 mM tri-[9,10(n)-^3H]-oleoyl-glycerol, 50 mM MgCl2, 0.5 g/L albumin (fatty acid-free), 3 ml/L preheated (60 min at 50° C.)rat serum, 25 mM PIPES buffer and 0.02 ml of sample in a final volume of 0.2 ml; the incubation was carried out for 30 min at 25° C.; after the reaction was stopped, the [^3H]-oleate evolved was quantified. All measurements of lipoprotein lipase activity in plasma and liver homogenates were carried out in the presence of anti-rat hepatic lipase antiserum. The homogenate and plasma protein content were determined with the Bradford method.
The enzyme activity was expressed in nkat/L of plasma of nkat/kg of tissue; the values were also referred to plasma or tissue protein content. The overall share of potential activity of the enzymes studied was also estimated by determining the contribution of each organ/tissue: plasma, liver and WAT (white adipose tissue) enzyme activity in relation to body mass. The results are expressed as the total activity found per kg of body weight in a given tissue or compartment. The liver was directly weighed (3.38±0.10% of BW (body weight) for lean and 3.17±0.13% of BW for the obese). The mass of plasma was taken as a 2.75% of body weight (blood being 5% of body weight, and packed cell volume 45% of that value). Overall WAT lipoprotein lipase activity in both groups of animals was calculated using the mean values for either the periovaric or mesenteric locations of both sets of data and the proportions of WAT published for lean [15% of BW] control and oleoyl-estrone-treated [7% of BW] and obese Zucker fa/fa rat [35% BW] control and oleoyl-estrone-treated [28% BW]. Muscle mass was calculated also as a proportion of body weight: 43% for lean and 33 for obese rats.
Statistical analysis of the differences between groups was established using ANOVA programs and the Student's t test.

## CCCCCCCC/C=C\CCCCCCCC(=O)Oc1ccc2c(c1)CC[C@@H]1[C@@H]2CC[C@]2(C)C(=O)CC[C@@H]12 [oleoyl-estrone]
[1]
  change of VLDLs in lipoproteinogram: marked increase
  change of high density lipoproteins in lipoproteinogram: marked reduction
Obese rats
  change of HDL components: all components decreased again with treatment, except for triacylglycerols
  change of LDL components: only tricylglycerol levels decreased
  change of chylomicra and VLDL components: marked decreases
  change of total phospholipid levels in lipoprotein-depleted plasma: decrease
  levels of all lipid classes in whole plasma: markedly lower levels
Lipoprotein lipase; lean animals, vs control
  overall loss of lipoprotein lipase because of treatment: 37%
Lipoprotein lipase; lean rats, vs controls
  effect on lipoprotein lipase activity in plasma: generalized rise
  effect on lipoprotein lipase activity of the tissues studied: did not affect significantly
Lipoprotein lipase; lean rats
  Lipoprotein-lipase activity, WAT mesenteric, whole tissue of the rat: 133 ± 64 nkat/rat
  Lipoprotein-lipase activity, WAT periovaric, whole tissue of the rat: 33.2 ± 5.0 nkat/rat
  Lipoprotein-lipase activity, Liver, per gram of tissue protein: 1.74 ± 0.32 nkat/g P
  Lipoprotein-lipase activity, Liver, per unit of tissue weight: 204 ± 48 pkat/g
  Lipoprotein-lipase activity, Liver, whole organ of the rat: 1.12 ± 0.34 nkat/rat
  Lipoprotein-lipase activity, Muscle, per gram of tissue protein: 3.09 ± 0.57 nkat/g P
  Lipoprotein-lipase activity, Muscle, per unit of tissue weight: 110.3 ± 41.3 pkat/g
  Lipoprotein-lipase activity, Plasma: 11.76 ± 1.75 pkat/mL
  Lipoprotein-lipase activity, Plasma, per gram of protein: 147.8 ± 18.9 pkat/g P
  Lipoprotein-lipase activity, WAT mesenteric, per gram of tissue protein: 779 ± 384 nkat/g P
  Lipoprotein-lipase activity, WAT mesenteric, per unit of tissue weight: 10.25 ± 4.94 nkat/g
  Lipoprotein-lipase activity, WAT periovaric, per gram of tissue protein: 317 ± 111 nkat/g P
  Lipoprotein-lipase activity, WAT periovaric, per unit of tissue weight: 2.56 ± 0.39 nkat/g
  Lipoprotein-lipase activity, Plasma, whole compartment of the rat: 59.2 ± 11.6 pkat/rat
Lipoprotein lipase; lean rats, muscle mass calculated as 43% of body weight
  Lipoprotein-lipase activity, Muscle, whole tissue of the rat: 8.79 ± 0.72 nkat/rat
Lipoprotein lipase; lean treated rats
  overall lipoprotein lipase activity in the rat (muscle + liver + plasma + WAT): 152 nkat
Lipoprotein lipase; lean, vs control
  decrease in mesenteric WAT lipoprotein lipase: 64%
  decrease in periovaric WAT lipoprotein lipase: 45%
Lipoprotein lipase; obese animals, vs control
  overall loss of lipoprotein lipase because of treatment: 51%
Lipoprotein lipase; obese rats, vs control
  change of lipoprotein lipase activity in skeletal muscle: increased fourfold
Lipoprotein lipase; obese rats, vs controls
  effect on lipoprotein lipase activity in WAT: decreases
  effect on lipoprotein lipase activity in liver: no changes
  effect on lipoprotein lipase activity in plasma: increases
Lipoprotein lipase; obese rats
  Lipoprotein-lipase activity, WAT mesenteric, whole tissue of the rat: 129 ± 27 nkat/rat
  Lipoprotein-lipase activity, WAT periovaric, whole tissue of the rat: 135 ± 19 nkat/rat
  Lipoprotein-lipase activity, Liver, per gram of tissue protein: 1.41 ± 0.21 nkat/g P
  Lipoprotein-lipase activity, Liver, per unit of tissue weight: 182 ± 27 pkat/g
  Lipoprotein-lipase activity, Liver, whole organ of the rat: 2.48 ± 0.26 nkat/rat
  Lipoprotein-lipase activity, Muscle, per gram of tissue protein: 40.8 ± 4.4 nkat/g P
  Lipoprotein-lipase activity, Muscle, per unit of tissue weight: 1383 ± 168 pkat/g
  Lipoprotein-lipase activity, Plasma: 7.19 ± 1.76 pkat/mL
  Lipoprotein-lipase activity, Plasma, per gram of protein: 107.1 ± 23.6 pkat/g P
  Lipoprotein-lipase activity, WAT mesenteric, per gram of tissue protein: 1767 ± 420 nkat/g P
  Lipoprotein-lipase activity, WAT mesenteric, per unit of tissue weight: 1.40 ± 0.29 nkat/g
  Lipoprotein-lipase activity, WAT periovaric, per gram of tissue protein: 245 ± 51 nkat/g P
  Lipoprotein-lipase activity, WAT periovaric, per unit of tissue weight: 1.46 ± 0.21 nkat/g
  Lipoprotein-lipase activity, Plasma, whole compartment of the rat: 51.4 ± 9.3 pkat/rat
Lipoprotein lipase; obese rats, muscle mass calculated as 33% of body weight
  Lipoprotein-lipase activity, Muscle, whole tissue of the rat: 152 ± 18 nkat/rat
Lipoprotein lipase; obese treated rats
  overall lipoprotein lipase activity in the rat (muscle + liver + plasma + WAT): 338 nkat
Lipoprotein lipase; obese, vs control
  decrease in mesenteric WAT lipoprotein lipase: 87%
  decrease in periovaric WAT lipoprotein lipase: 56%
